The values below come from ChEMBL document CHEMBL5365451, “Discovery of CVN417, a Novel Brain-Penetrant α6-Containing Nicotinic Receptor Antagonist for the Modulation of Motor Dysfunction” (J Med Chem, 2023).

Series [1] is described as follows: Antagonist activity at human alpha6-alpha3/beta2/beta3 V273S mutant nAChR expressed in HEK293 cells assessed as nicotine-induced intracellular calcium release incubated for 15 mins by FLIPR analysis. Type of series: cell-based. To be noted: HEK293, 0.25 h. A general note: A change in cytosolic calcium serves as a functional read-out for many receptors and channels.

Series [2] concerns the target Neuronal acetylcholine receptor; alpha3/beta4 (Homo sapiens, UniProt P30926+P32297). As to the kind of experiment: Antagonist activity at human alpha3/beta4 nAChR expressed in HEK293 cells assessed as nicotine-induced intracellular calcium release incubated for 15 mins by FLIPR analysis. It is filed as cell-based.
The target of series [3] is Neuronal acetylcholine receptor; alpha4/beta2 (Homo sapiens, UniProt P17787+P43681). As to the kind of experiment: Antagonist activity at human alpha4/beta2 nAChR expressed in HEK293 cells assessed as nicotine-induced intracellular calcium release incubated for 15 mins by FLIPR analysis. It is filed as cell-based.
Series [4] is described as follows: Intrinsic clearance in Sprague-Dawley rat at 0.5 mg/kg, iv by LC-MS/MS analysis. Type of series: ADME, organism-based. The conditions noted are these: in vivo.
A short description of series [5]: Volume of distribution at steady state in Sprague-Dawley rat at 0.5 mg/kg, iv by LC-MS/MS analysis. It is filed as ADME, organism-based. To be noted: in vivo, read-out: Vdss.
Series [6] is described as follows: Oral bioavailability in Sprague-Dawley rat 3 mg/kg by LC-MS/MS analysis. It is filed as ADME, organism-based. To be noted: in vivo.
The nature of series [7]: Drug exposure in Sprague-Dawley rat brain at 3 mg/kg, po measured for 2 hrs by LC-MS/MS analysis. It is filed as ADME, organism-based. To be noted: read-out: Drug uptake.
Series [8] in a line: Metabolic stability in human liver microsome assessed as clearance preincubated for 60 mins followed by NADPH addition and measured after 60 mins by LC-MS/MS analysis. Type of series: ADME. The conditions noted are these: liver microsomes, time 120 min, read-out: CLH. For orientation: Liver microsomes are a subcellular fraction often used to study metabolism.
Series [9] can be described thus: Metabolic stability in rat liver microsome assessed as clearance preincubated for 60 mins followed by NADPH addition and measured after 60 mins by LC-MS/MS analysis. Type of series: ADME. The conditions noted are these: liver microsomes, time 120 min, read-out: CLH.
The nature of series [10]: Metabolic stability in human liver microsome assessed as clearance at 10 uM incubated upto 2 hrs by LC-MS/MS analysis. Type of series: ADME. To be noted: liver microsomes, read-out: CLH.
The nature of series [11]: Metabolic stability in rat liver microsome assessed as clearance at 10 uM incubated upto 2 hrs by LC-MS/MS analysis. It is filed as ADME. The conditions noted are these: liver microsomes, read-out: CLH.
For series [12], the system named is Rattus norvegicus. As to the kind of experiment: Protection against tacrine-induced Sprague-Dawley rat tremulous jaw model assessed as decrease in tremor jaw movement at 25 mg/kg, po pretreated with compound for 90 mins followed by tacrine addition and measured after 5 mins. It is filed as functional. Also on record: scale not given: the % may be the effect or the level left. To be noted: time 95 min, 1.583 h.

The test system of series [13] is Rattus norvegicus. Nature of the series: Protection against tacrine-induced po dosed Sprague-Dawley rat tremulous jaw model assessed as decrease in tremor duration pretreated with compound for 90 mins followed by tacrine addition and measured after 5 mins. Type of series: functional, organism-based. To be noted: dose 3-25 mg/kg, time 95.0 min.
The subject of series [14] is Brain. As to the kind of experiment: Drug concentration in po dosed Sprague-Dawley rat brain measured after 2 hrs by LC-MS/MS analysis. It is filed as functional, organism-based. The conditions noted are these: dose 3-25 mg/kg.

Neuronal acetylcholine receptor; alpha4/beta2, sequence (P17787 whole entry): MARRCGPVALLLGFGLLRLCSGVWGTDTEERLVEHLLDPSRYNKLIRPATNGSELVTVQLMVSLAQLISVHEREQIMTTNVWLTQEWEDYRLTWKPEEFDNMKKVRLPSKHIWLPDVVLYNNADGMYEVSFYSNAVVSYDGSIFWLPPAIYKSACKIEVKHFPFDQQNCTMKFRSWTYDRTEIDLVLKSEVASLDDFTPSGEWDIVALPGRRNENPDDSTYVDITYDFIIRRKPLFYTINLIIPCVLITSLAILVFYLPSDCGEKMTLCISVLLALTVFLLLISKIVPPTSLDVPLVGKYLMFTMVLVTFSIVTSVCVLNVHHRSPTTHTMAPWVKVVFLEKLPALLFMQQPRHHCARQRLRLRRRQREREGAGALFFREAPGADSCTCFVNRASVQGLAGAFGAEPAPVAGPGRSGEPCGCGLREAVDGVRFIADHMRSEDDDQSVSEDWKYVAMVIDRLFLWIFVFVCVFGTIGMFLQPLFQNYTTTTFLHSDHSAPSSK
Neuronal acetylcholine receptor; alpha4/beta2, sequence (P43681 whole entry): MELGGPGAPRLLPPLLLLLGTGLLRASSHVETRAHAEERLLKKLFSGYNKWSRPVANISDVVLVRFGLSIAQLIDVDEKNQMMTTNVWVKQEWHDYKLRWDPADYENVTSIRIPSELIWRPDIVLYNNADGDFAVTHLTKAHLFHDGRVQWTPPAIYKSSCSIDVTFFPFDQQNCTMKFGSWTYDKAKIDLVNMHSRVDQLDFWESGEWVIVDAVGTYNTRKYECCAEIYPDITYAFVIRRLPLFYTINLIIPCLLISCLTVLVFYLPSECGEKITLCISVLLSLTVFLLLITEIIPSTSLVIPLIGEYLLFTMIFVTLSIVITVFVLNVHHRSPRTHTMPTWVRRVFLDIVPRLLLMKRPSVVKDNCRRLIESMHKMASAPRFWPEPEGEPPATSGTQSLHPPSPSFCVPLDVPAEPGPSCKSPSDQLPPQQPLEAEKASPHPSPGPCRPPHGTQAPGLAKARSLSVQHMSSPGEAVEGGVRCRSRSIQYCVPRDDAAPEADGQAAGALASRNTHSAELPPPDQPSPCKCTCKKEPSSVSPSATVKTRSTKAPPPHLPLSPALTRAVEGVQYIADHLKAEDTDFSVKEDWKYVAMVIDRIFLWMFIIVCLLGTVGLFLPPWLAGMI
Neuronal acetylcholine receptor; alpha3/beta4, sequence (P30926 whole entry): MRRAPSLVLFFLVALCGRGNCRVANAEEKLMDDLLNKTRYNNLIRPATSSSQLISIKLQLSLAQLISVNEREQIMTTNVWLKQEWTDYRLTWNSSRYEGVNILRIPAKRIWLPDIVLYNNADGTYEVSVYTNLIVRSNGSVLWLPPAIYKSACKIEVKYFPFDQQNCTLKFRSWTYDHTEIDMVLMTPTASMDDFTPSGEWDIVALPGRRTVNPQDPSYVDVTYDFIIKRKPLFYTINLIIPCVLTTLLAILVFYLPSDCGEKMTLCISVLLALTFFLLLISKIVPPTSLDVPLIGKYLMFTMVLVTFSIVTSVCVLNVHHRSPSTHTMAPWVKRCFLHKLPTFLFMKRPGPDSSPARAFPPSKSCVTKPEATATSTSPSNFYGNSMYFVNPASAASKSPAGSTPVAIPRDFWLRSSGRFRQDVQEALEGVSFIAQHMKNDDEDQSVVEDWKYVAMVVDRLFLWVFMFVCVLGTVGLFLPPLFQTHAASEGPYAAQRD
Neuronal acetylcholine receptor; alpha3/beta4, sequence (P32297 whole entry): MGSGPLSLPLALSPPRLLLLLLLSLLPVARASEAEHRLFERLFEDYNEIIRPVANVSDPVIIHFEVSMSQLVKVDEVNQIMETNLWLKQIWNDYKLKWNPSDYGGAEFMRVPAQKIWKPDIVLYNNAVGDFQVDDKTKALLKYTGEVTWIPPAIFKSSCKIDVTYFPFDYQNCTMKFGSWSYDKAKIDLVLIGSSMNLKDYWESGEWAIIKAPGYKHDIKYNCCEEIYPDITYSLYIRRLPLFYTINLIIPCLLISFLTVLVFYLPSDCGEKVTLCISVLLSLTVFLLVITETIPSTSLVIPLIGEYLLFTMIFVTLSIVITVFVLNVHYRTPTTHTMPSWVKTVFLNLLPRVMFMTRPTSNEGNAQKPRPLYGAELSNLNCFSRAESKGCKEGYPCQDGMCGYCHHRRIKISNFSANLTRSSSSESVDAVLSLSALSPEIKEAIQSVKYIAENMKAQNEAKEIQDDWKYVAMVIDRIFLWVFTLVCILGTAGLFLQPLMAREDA

For orientation: IC50 means the concentration needed to halve the response being measured. As for `CN1CCC[C@@H](NC(=O)c2cc(-c3ccc(C(F)(F)F)cc3Cl)n(C)n2)C1`, the IC50 in series [1] came to 76 nM.
The bioavailability is dose-corrected exposure relative to a reference, in per cent. In the case of `CN(C)C1(CNC(=O)c2cc(-c3ccc(C(F)(F)F)cc3)n(C)n2)CCCC1`, the IC50 in series [1] stood at 183 nM; in series [2], 1410 nM; in series [3], 281 nM. Also, in series [4], the CL was determined as 81.8 mL/min/kg. Further, the Vd in series [5] worked out at 18.7 L/kg. The bioavailability in [6] is 27.8%. The concentration at 2 h in series [7] was determined as 30 nM.
Regarding `Cn1nc(C(=O)NCCN2CCCCC2)cc1-c1ccc(C(F)(F)F)cc1`, the results for the IC50 in series [1], in [2] and in series [3] were 60 nM, 450 nM and 3180 nM, respectively. Also, the microsomal CLint in series [8] and in series [9] was 3.1 µL/min/mg in each case. In addition, in series [4], the CL is 64.9 mL/min/kg. Also, in [5], the Vd came out at 29.8 L/kg. Besides, in series [6], the bioavailability amounted to 82%. Also, the concentration at 2 h in [7] was 524 nM.
On to `CN1[C@@H]2CCC[C@H]1C[C@H](NC(=O)c1cc(-c3ccc(C(F)(F)F)cc3)n(C)n1)C2`, for which the IC50 is 133 nM in [1], 6250 nM in series [2] and 993 nM in [3]. The microsomal CLint in series [8] amounted to 1.2 µL/min/mg; in [9], 3.2 µL/min/mg. In [4], the CL worked out at 20.4 mL/min/kg. The Vd in [5] is 23.4 L/kg. Also, the bioavailability in series [6] was 86.6%. Besides, the concentration at 2 h in series [7] worked out at 140 nM.
As for `Cn1nc(C(=O)NCC2CCCOC2)cc1-c1ccc(C(F)(F)F)cc1` (racemic), the IC50 in series [1] was 3290 nM.
On to `CN1CCC[C@@H](NC(=O)c2cc(-c3ccc(C(F)(F)F)cc3)n(C)n2)C1`, for which the values for the IC50 in series [1], in series [2] and in series [3] were 80 nM, 637 nM and 2820 nM, respectively. Moreover, the microsomal CLint in series [8] is 21.4 µL/min/mg; in series [9] it was 3.5 µL/min/mg. Also, in [4], the CL was determined as 70 mL/min/kg. In [5], the Vd was 13.4 L/kg. In addition, the bioavailability in series [6] was > 100%. For the same compound, in series [7], the concentration at 2 h was determined as 1910 nM.
Consider `COc1ccc(-c2cc(C(=O)N[C@H]3CCCN(C)C3)nn2C)cc1`, for which the values for the IC50 in [1], in series [2] and in series [3] were 194 nM, > 10000 nM and 2620 nM, respectively.
As to `CN1CCC[C@H](NC(=O)c2cc(-c3ccc(C(F)(F)F)cc3Cl)n(C)n2)C1`, in [1], the IC50 was determined as 83 nM.
As to `COc1ccc(-c2cc(C(=O)N[C@H]3CN(C)CCC3(F)F)nn2C)c(Cl)c1`, in [1], the IC50 is 115 nM. For the same compound, the microsomal CLint at 10 µM in series [10] came out at 75.5 µL/min/mg; in series [11] it was 204 µL/min/mg.
For the compound `Cc1ccc(C)c(Cn2nc(C)cc2C(=O)N[C@@H]2C[C@H]3CCC[C@@H](C2)N3C)c1`, the concentration for half-maximal inhibition (IC50) in series [1] is 703 nM.
In the case of `CN1CCC(NC(=O)c2cc(-c3ccc(C(F)(F)F)cc3)n(C)n2)C1` (racemic), the IC50 in series [1] is 132 nM; in series [2], 2450 nM; in series [3], 7720 nM. Moreover, the microsomal CLint in [8] is 28.9 µL/min/mg; in [9], 31.2 µL/min/mg. This compound displayed a CL in series [4] of 47 mL/min/kg. Besides, the Vd in [5] worked out at 18.5 L/kg. The bioavailability in [6] was found to be 18.1%. In addition, in series [7], the concentration at 2 h stood at 948 nM.
Regarding `CCCN(CCC)CCc1cccc2c1CC(=O)N2` [ROPINIROLE], the Activity in series [12] was found to be 17.5%.
For `CN1CCC(NC(=O)c2cc(-c3ccc(C(F)(F)F)cc3)nn2C)CC1`, in [1], the IC50 was 3840 nM.
In the case of `COc1ccc(-c2cc(C(=O)N[C@@H]3CCCN(C)C3)nn2C)cc1`, the figures for the IC50 in [1], in [2] and in [3] were 230 nM, > 10000 nM and 3500 nM, respectively.
On to `COc1ccc(-c2cc(C(=O)N[C@@H]3CN(C)CCC3(F)F)nn2C)c(Cl)c1`, for which the IC50 in series [1] came to 94 nM. Also, the figures for the microsomal CLint at 10 µM in series [10] and in series [11] were 61.3 µL/min/mg and < 6.4 µL/min/mg, respectively.
With `COc1ccc(-c2cc(C(=O)N[C@@H]3CCCN(C)C3)nn2C)c(Cl)c1`, the figures for the IC50 in series [1], in [2] and in series [3] were 77 nM, 2090 nM and 563 nM, respectively. For the same compound, the Activity entry in series [13] was “Dose-Dependent Effect”. Further, the Drug uptake entry in [14] was “Dose-Dependent Effect”.
For `[2H]C([2H])([2H])Oc1ccc(-c2cc(C(=O)N[C@H]3CCCN(C([2H])([2H])[2H])C3)nn2C([2H])([2H])[2H])c(Cl)c1`, in series [1], the IC50 was found to be 89 nM. Further, the microsomal CLint at 10 µM in series [10] worked out at 0.7 µL/min/mg; in series [11], 11 µL/min/mg.
For the compound `CN1CCC(NC(=O)c2cc(-c3ccc(C(F)(F)F)cc3)n(C)n2)CC1`, the IC50 amounted to 139 nM in series [1], 4960 nM in [2] and 1040 nM in [3]. In series [4], this compound gave a CL of 41.5 mL/min/kg. In addition, the Vd in series [5] was found to be 25.7 L/kg. In [6], this compound registered a bioavailability of 70.1%. Besides, the concentration at 2 h in series [7] is 2970 nM.
As for `CN1CCC[C@H](NC(=O)c2cc(-c3ccc(C(F)(F)F)cc3)n(C)n2)C1`, the results for the half-maximal inhibitory concentration (IC50) in [1], in series [2] and in [3] were 93 nM, 422 nM and 3730 nM, respectively. Moreover, the microsomal CLint in series [8] worked out at 9.6 µL/min/mg; in series [9], 2.5 µL/min/mg. In addition, the CL in series [4] turned out to be 40.5 mL/min/kg. Also, in [5], the Vd stood at 13 L/kg. For the same compound, the bioavailability in [6] stood at 17.3%. In series [7], the concentration at 2 h was 1090 nM.
